Reference: publication PMC6053404, “Enzymatic one-step ring contraction for quinolone biosynthesis” (Nature Communications, 2018)

Tests used:
AsqI = target: T1, AsqI (Aspergillus nidulans, UniProt C8VJQ3); assay: LC-MS initial rate of […]′-methoxyviridicatin […] formation; type: biochemical; settings: MES Na 100 mM, NaCl 100 mM, pH 5.5, 30 °C; substrate 0.05-0.8 mM, Km extrapolated above tested range
T1 construct: hexahistidine-tagged, recombinant from Escherichia coli; plasmid pKW18244; zinc-dependent
T1 sequence (C8VJQ3 whole entry): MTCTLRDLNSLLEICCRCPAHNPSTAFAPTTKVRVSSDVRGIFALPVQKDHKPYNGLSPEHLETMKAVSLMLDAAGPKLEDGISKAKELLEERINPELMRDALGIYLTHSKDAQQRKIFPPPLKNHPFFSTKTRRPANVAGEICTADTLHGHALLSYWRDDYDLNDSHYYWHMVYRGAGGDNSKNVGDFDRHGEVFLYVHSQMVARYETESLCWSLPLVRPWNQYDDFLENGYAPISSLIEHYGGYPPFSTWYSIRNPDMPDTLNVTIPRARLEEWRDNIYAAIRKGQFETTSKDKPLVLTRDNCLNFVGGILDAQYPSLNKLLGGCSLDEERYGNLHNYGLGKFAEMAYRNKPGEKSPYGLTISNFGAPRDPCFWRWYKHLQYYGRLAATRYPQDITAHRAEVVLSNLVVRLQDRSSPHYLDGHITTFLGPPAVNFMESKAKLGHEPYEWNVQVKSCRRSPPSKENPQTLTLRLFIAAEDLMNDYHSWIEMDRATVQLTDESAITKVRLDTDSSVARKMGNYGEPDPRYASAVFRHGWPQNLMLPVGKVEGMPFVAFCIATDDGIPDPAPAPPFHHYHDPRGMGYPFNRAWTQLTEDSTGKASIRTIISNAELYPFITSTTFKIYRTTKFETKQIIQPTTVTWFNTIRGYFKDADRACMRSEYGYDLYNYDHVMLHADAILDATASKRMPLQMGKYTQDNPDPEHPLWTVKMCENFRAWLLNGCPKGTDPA

PngL = system: T2, PngL; assay: steady-state kinetics; type: biochemical, Penicillium sp. FKI-2140; settings: accurate parameters prevented by difficult purification; conditions in Supplementary Methods
T2 construct: hexahistidine-tagged, recombinant from Escherichia coli; difficult to purify

SMILES: COc1ccc(C2OC23C(=O)Nc2ccccc2C(=O)N3C)cc1 (single isomer, unassigned; (-)) [compound 2, (–)-4′-methoxycyclopenin]
- Km (AsqI): 2860 ± 520 µM
- Km (PngL): 350 ± 30 µM
